Measured values taken from PubChem BioAssay AID330 (DTP/NCI, 2004).
Values joined by “and” are separate entries in the source; they are usually repeats but may differ in a detail not shown here. Identical values can stand only once. Toxic doses and inconclusive results are not listed.

System: P388 leukemia ip, CD2F1 mice, survival T/C
Assay: NCI In Vivo Anticancer Drug Screen. Data for tumor model P388 Leukemia (intraperitoneal) in CD2F1 (CDF1) mice
Details: endpoint: median survival time, higher = longer survival
In short: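 Mice carrying the transplanted tumor received test compound or vehicle. Survival was recorded in each group, and the value is the treated-group measurement divided by that of the vehicle-treated control group.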

[1] = dose: 100.0 mg/kg/injection, schedule: Q04DX002 (ip), vehicle: Klucel (hydroxypropylcellulose) (HPC)
[2] = dose: 200.0 mg/kg/injection, schedule: Q04DX002 (ip), vehicle: Klucel (hydroxypropylcellulose) (HPC)
[3] = dose: 400.0 mg/kg/injection, schedule: Q04DX002 (ip), vehicle: Klucel (hydroxypropylcellulose) (HPC)
[4] = dose: 50.0 mg/kg/injection, schedule: Q01DX009 (ip), vehicle: saline with Tween-80
[5] = dose: 100.0 mg/kg/injection, schedule: Q01DX009 (ip), vehicle: saline with Tween-80
[6] = dose: 100.0 mg/kg/injection, schedule: Q04DX003 (ip), vehicle: saline with Tween-80
[7] = dose: 200.0 mg/kg/injection, schedule: Q04DX003 (ip), vehicle: saline with Tween-80
[8] = dose: 12.5 mg/kg/injection, schedule: Q01DX009 (ip), vehicle: saline with Tween-80
[9] = dose: 25.0 mg/kg/injection, schedule: Q01DX009 (ip), vehicle: saline with Tween-80
[10] = dose: 12.5 mg/kg/injection, schedule: Q01DX009 (ip), vehicle: saline
[11] = dose: 25.0 mg/kg/injection, schedule: Q01DX009 (ip), vehicle: saline
[12] = dose: 50.0 mg/kg/injection, schedule: Q01DX009 (ip), vehicle: saline
[13] = dose: 100.0 mg/kg/injection, schedule: Q01DX009 (ip), vehicle: saline
[14] = dose: 200.0 mg/kg/injection, schedule: Q01DX009 (ip), vehicle: saline
[15] = dose: 50.0 mg/kg/injection, schedule: Q04DX002 (ip), vehicle: saline with Tween-80
[16] = dose: 100.0 mg/kg/injection, schedule: Q04DX002 (ip), vehicle: saline with Tween-80
[17] = dose: 60.0 mg/kg/injection, schedule: Q01DX005 (ip), vehicle: saline with Tween-80
[18] = dose: 120.0 mg/kg/injection, schedule: Q01DX005 (ip), vehicle: saline with Tween-80
[19] = dose: 240.0 mg/kg/injection, schedule: Q01DX005 (ip), vehicle: saline with Tween-80

In the case of `C/C(=N\NC(=S)N1CCN(c2ccccc2)CC1)c1cnccn1`, the T/C (dose: 1.56 mg/kg/injection, schedule: Q01DX005 (ip), vehicle: saline with Tween-80) is reported as 103 % of control, the T/C (dose: 3.13 mg/kg/injection, schedule: Q01DX005 (ip), vehicle: saline with Tween-80) is reported as 105 % of control and the T/C (dose: 6.25 mg/kg/injection, schedule: Q01DX005 (ip), vehicle: saline with Tween-80) is reported as 111 % of control and 93 % of control. The T/C (dose: 12.5 mg/kg/injection, schedule: Q01DX005 (ip), vehicle: saline with Tween-80) was 109 % of control.
`CCC(c1ccc(OCC(=O)N/N=C2/CCC3C4CCc5cc(O)ccc5C4CCC23C)cc1)C(CC)c1ccc(OCC(=O)N/N=C2\CCC3C4CCc5cc(O)ccc5C4CCC23C)cc1` (configuration not stated) was tested, and the T/C (dose: 25.0 mg/kg/injection, schedule: Q01DX001 (ip), vehicle: Klucel (hydroxypropylcellulose) (HPC)) was 98 % of control and the T/C (dose: 50.0 mg/kg/injection, schedule: Q01DX001 (ip), vehicle: Klucel (hydroxypropylcellulose) (HPC)) was 90 % of control.
`O=C(O)c1ccccc1Cc1cccc2ccccc12` was tested, and the T/C [1] was 91 % of control, the T/C [2] was 96 % of control and the T/C [3] was 99 % of control.
In the case of `CC(C)(C)CC(C)(C)C/C=C/C[N+](C)(C)C/C=C/CC(C)(C)CC(C)(C)C`, the T/C (dose: 12.5 mg/kg/injection, schedule: Q04DX002 (ip), vehicle: saline) is reported as 102 % of control and the T/C (dose: 25.0 mg/kg/injection, schedule: Q04DX002 (ip), vehicle: saline) is reported as 95 % of control.
For `O=C1OC2(CCCCC2)N(c2ccccc2)C(=O)/C1=C/Nc1ccc(Cl)cc1`, the T/C [4] was 98 % of control, the T/C [5] was 99 % of control and the T/C (dose: 200.0 mg/kg/injection, schedule: Q01DX009 (ip), vehicle: saline with Tween-80) was 92 % of control.
In the case of `N#CS.[Cr+3].[NH-]CC[NH-].[NH-]CC[NH-].[NH-]CC[NH-]`, the T/C [4] is reported as 104 % of control, the T/C [5] is reported as 95 % of control and the T/C [6] is reported as 100 % of control. For the same compound, the T/C [7] was 104 % of control.
`CCOC(=O)CN=NNc1ccc([N+](=O)[O-])cc1` was tested, and the T/C (dose: 100.0 mg/kg/injection, schedule: Q01DX001 (ip), vehicle: Klucel (hydroxypropylcellulose) (HPC)) was 106 % of control, the T/C (dose: 200.0 mg/kg/injection, schedule: Q01DX001 (ip), vehicle: Klucel (hydroxypropylcellulose) (HPC)) was 109 % of control and the T/C (dose: 400.0 mg/kg/injection, schedule: Q01DX001 (ip), vehicle: Klucel (hydroxypropylcellulose) (HPC)) was 109 % of control.
In the case of `CC(C(=O)O)C1(O)CCCCC1` (configuration not stated), the T/C [8] is reported as 99 % of control, the T/C [9] is reported as 105 % of control and the T/C [4] is reported as 102 % of control. The T/C [5] was 106 % of control.
In the case of `C=C(CC(=O)O)C(=O)O` (tested in a mixture with another compound), the T/C [10] is reported as 100 % of control, the T/C [11] is reported as 100 % of control and the T/C [12] is reported as 100 % of control.
For `O=C1CCCCCCCCC1O` (configuration not stated), the T/C [6] was 106 % of control, the T/C [7] was 108 % of control and the T/C (dose: 400.0 mg/kg/injection, schedule: Q04DX003 (ip), vehicle: saline with Tween-80) was 110 % of control.
For `CC(C)[C@H](N)C(=O)NCCNC(=O)[C@@H](N)C(C)C`, the T/C (dose: 60.0 mg/kg/injection, schedule: Q01DX005 (ip), vehicle: saline) was 91 % of control and the T/C (dose: 120.0 mg/kg/injection, schedule: Q01DX005 (ip), vehicle: saline) was 98 % of control.
With `O=C1SC(Nc2ccc([N+](=O)[O-])cc2)/C(=N\N=C2/C(Nc3ccc([N+](=O)[O-])cc3)SC(=O)N2Cc2ccccc2)N1Cc1ccccc1` (configuration not stated) the T/C [1] was 95 % of control, the T/C [2] was 95 % of control and the T/C [3] was 97 % of control.
In the case of `NC1(C(=O)O)CCCC1C(=O)O` (configuration not stated), the T/C [12] is reported as 99 % of control, the T/C [13] is reported as 99 % of control and the T/C [14] is reported as 90 % of control.
For `CC(C)C(Nc1ncnc2c1CCc1ccccc1-2)C(=O)O` (configuration not stated), the T/C [15] was 95 % of control and the T/C [16] was 100 % of control.
For `C=CC1CN2CCC1CC2C(=O)c1ccnc2ccc(OC)cc12` (configuration not stated), the T/C (dose: 50.0 mg/kg/injection, schedule: Q01DX005 (ip), vehicle: saline with Tween-80) was 100 % of control, the T/C (dose: 100.0 mg/kg/injection, schedule: Q01DX005 (ip), vehicle: saline with Tween-80) was 100 % of control and the T/C (dose: 200.0 mg/kg/injection, schedule: Q01DX005 (ip), vehicle: saline with Tween-80) was 100 % of control.
For `CC(C)c1ccccc1Oc1ccccc1N=C1CCN(C)C1`, the T/C [10] was 100 % of control, the T/C [11] was 107 % of control and the T/C [12] was 100 % of control and 95 % of control.
For `CC(=O)/C(=C\c1c(Cl)cccc1Cl)C(=O)CCN(C)C`, the T/C (dose: 7.5 mg/kg/injection, schedule: Q01DX005 (ip), vehicle: saline) was 120 % of control, the T/C (dose: 15.0 mg/kg/injection, schedule: Q01DX005 (ip), vehicle: saline) was 117 % of control and the T/C (dose: 30.0 mg/kg/injection, schedule: Q01DX005 (ip), vehicle: saline) was 117 % of control.
With `Cc1cccc(-n2c(=O)c3[nH]c4ccccc4sc=3c2=O)c1` the T/C [17] was 104 % of control, the T/C [18] was 107 % of control and the T/C [19] was 92 % of control.
For `CC(N=Cc1cccs1)c1ccccc1` (configuration not stated), the T/C (dose: 100.0 mg/kg/injection, schedule: Q04DX003 (ip), vehicle: saline) was 98 % of control, the T/C (dose: 200.0 mg/kg/injection, schedule: Q04DX003 (ip), vehicle: saline) was 95 % of control and the T/C (dose: 400.0 mg/kg/injection, schedule: Q04DX003 (ip), vehicle: saline) was 99 % of control.
With `CC(C=NC1CCCCC1)c1ccccc1` (configuration not stated) the T/C [12] was 96 % of control, the T/C [13] was 87 % of control and the T/C [14] was 102 % of control.
With `Nn1cnnc1N/N=C\c1ccc(N(CCCl)CCCl)cc1` the T/C [10] was 121 % of control and 122 % of control, the T/C [12] was 174 % of control and 188 % of control and the T/C [13] was 195 % of control and 209 % of control.
`Clc1cccc(C(Nc2nncs2)Nc2nncs2)c1` was tested, and the T/C [17] was 100 % of control, the T/C [18] was 100 % of control and the T/C [19] was 93 % of control.
`CCCN(CCC)C1=CC(=O)C(N(CCC)CCC)=CC1=O` was tested, and the T/C (dose: 50.0 mg/kg/injection, schedule: Q01DX005 (ip), vehicle: Klucel (hydroxypropylcellulose) (HPC)) was 117 % of control and the T/C (dose: 100.0 mg/kg/injection, schedule: Q01DX005 (ip), vehicle: Klucel (hydroxypropylcellulose) (HPC)) was 89 % of control.
With `Nc1nc(F)nc2c1nnn2C1OC(CO)C(O)C1O` (configuration not stated) the T/C (dose: 12.5 mg/kg/injection, schedule: Q01DX001 (ip), vehicle: saline) was 112 % of control, the T/C (dose: 25.0 mg/kg/injection, schedule: Q01DX001 (ip), vehicle: saline) was 109 % of control and the T/C (dose: 50.0 mg/kg/injection, schedule: Q01DX001 (ip), vehicle: saline) was 109 % of control. The T/C (dose: 50.0 mg/kg/injection, schedule: Q01DX005 (ip), vehicle: saline) was 121 % of control, the T/C (dose: 100.0 mg/kg/injection, schedule: Q01DX001 (ip), vehicle: saline) was 104 % of control and the T/C (dose: 100.0 mg/kg/injection, schedule: Q01DX005 (ip), vehicle: saline) was 114 % of control.
In the case of `O=c1[nH]c(=O)n(O)c2nc[nH]c12`, the T/C [8] is reported as 90 % of control, the T/C [9] is reported as 100 % of control and the T/C [4] is reported as 90 % of control.
`COC(=O)c1ccc(N)c2c(N)ccc(C(=O)OC)c12` was tested, and the T/C [17] was 98 % of control, the T/C [18] was 114 % of control and the T/C [19] was 97 % of control.
For `CC(=O)OCC1OC(OC(C)=O)C(N(CCCl)CCCl)C(OC(C)=O)C1OC(C)=O` (configuration not stated), the T/C (dose: 0.31 mg/kg/injection, schedule: Q01DX005 (ip), vehicle: water) was 151 % of control, the T/C (dose: 0.62 mg/kg/injection, schedule: Q01DX005 (ip), vehicle: water) was 151 % of control and the T/C (dose: 1.25 mg/kg/injection, schedule: Q01DX005 (ip), vehicle: distilled water + Tween-80) was 181 % of control. The T/C (dose: 1.25 mg/kg/injection, schedule: Q01DX005 (ip), vehicle: water) was 177 % of control, the T/C (dose: 2.5 mg/kg/injection, schedule: Q01DX005 (ip), vehicle: distilled water + Tween-80) was 216 % of control and the T/C (dose: 2.5 mg/kg/injection, schedule: Q01DX005 (ip), vehicle: water) was 213 % of control. For the same compound, the T/C (dose: 5.0 mg/kg/injection, schedule: Q01DX005 (ip), vehicle: water) was 110 % of control.
With `c1csc(SSc2nccs2)n1` the T/C (dose: 25.0 mg/kg/injection, schedule: Q04DX002 (ip), vehicle: saline with Tween-80) was 104 % of control, the T/C [15] was 103 % of control and the T/C [16] was 103 % of control and 105 % of control.
In the case of `CC1=C(O)C(=O)[C@@H]2O[C@@H]2C1=O`, the T/C (dose: 1.5 mg/kg/injection, schedule: Q01DX007 (ip), vehicle: saline) is reported as 111 % of control, the T/C (dose: 3.0 mg/kg/injection, schedule: Q01DX007 (ip), vehicle: saline) is reported as 122 % of control and the T/C (dose: 6.0 mg/kg/injection, schedule: Q01DX007 (ip), vehicle: saline) is reported as 122 % of control.
